The pKa sets of Baltruschat and Czodrowski (2020)

Settings: acidic group

| SMILES | pKa |
| --- | --- |
| Cc1ncnc2nc[nH]c12 | 9.21 |
| O=C([O-])[C@@H]1O[C@H](Oc2ccc3[nH+]ccc(O)c3c2)[C@@H](O)[C@H](O)[C@H]1O | 3.7 |
| O/N=C/c1ccncc1 | 9.91 |
| Nc1ccncn1 | 18.4 |
| Cc1cccc(S(=O)(=O)O)c1 | -6.56 |
| Cc1cc(OS(=O)(=O)[O-])c2oc(-c3cc4ccc(O)cc4oc3=O)nc2c1 | 6.8 |
| O=C(O)Cn1cnnn1 | 2.27 |
| Sc1ccc(Cl)cc1 | 5.82 |
| CC(C)(C)OOCCC(=O)O | 4.36 |
| N#CS | 0.85 |
| CC(Br)[N+](=O)[O-] (stereo not given) | 7.17 |
| C[N+](C)(C)Cc1cccc(O)c1 | 8.89 |
| O/N=C1\CCCC\C1=N/O | 10.5 |
| O=C1CC(=O)C(=O)C1 | 3 |
| CC(C)(C)CC(=O)O | 5.01 |
| CCSC(C)C(=O)O (stereo not given) | 3.8 |
| Cc1cc(C)cc(C(=O)O)c1 | 4.3 |
| O=C(O)[C@H]1C[C@@H]1c1ccccc1 | 4.54 |
| [O-]c1ccccc1O | 11.6 |
| Cc1ccccc1NN=C(C#N)C#N | 6.9 |
| Cn1cnc2c(O)[nH+]cnc21 | 1.86 |
| CC(Br)C(=O)O (stereo not given) | 2.97 |
| Cc1cc(C(N)=O)cc(C)[n+]1O | 2.08 |
| O=C(O)c1cccc2ccc(O)cc12 | 3.69 |
| CN(C)c1nc(/N=N/O)nn1C | 5.94 |
| CN1Cc2[nH]cnc2N(C)C1=O | 11.2 |
| O=C(O)C12CC3CC(CC(C3)C1)C2 | 4.95 |
| N#Cc1ccc(S(=O)(=O)NCc2ccccc2)cc1 | 10.3 |
| CCC[NH2+]C(C)C(=O)O (stereo not given) | 2.21 |

Now from value to compound:

| pKa | SMILES |
| --- | --- |
| 4.87 | O=C(O)CCc1c[nH]c2ccccc12 |
| 7.09 | C[n+]1ccc2ccc(O)cc2c1 |
| 11.2 | [O-]c1nc(C(F)(F)F)nc2nc[nH]c12 |
| 4.56 | O=Cc1ccccc1C(=O)O |
| 4.24 | CC(C)Oc1ccccc1C(=O)O |
| 5.4 | O=c1ccccc(O)c1 |
| 7.68 | O=C(Oc1ccc([N+](=O)[O-])cc1[N+](=O)[O-])c1ccc(O)cc1 |
| 11.5 | Cc1ccc2c(c1[O-])-c1c-2ccc(C)c1O |
| 4.23 | COc1ccc(-c2nnn[nH]2)cc1 |
| 1.1 | Oc1nc(C(F)(F)F)nc2[nH+]c[nH]c12 |
| 6.8 | Cn1cnc2[nH]c(=O)[nH]c(=S)c21 |
| 9.39 | Nc1nc2nc[nH]c2c([O-])[nH+]1 |
| 10.2 | S=C(Nc1ccc(Br)cc1)c1ccc(Cl)cc1 |
| 4.2 | O=C(O)c1ccc2ccccc2c1 |
| 9.85 | Cc1cc(Nc2ccc(O)cc2)c(C(C)C)cc1O |
| 9.03 | O=C1NC(=O)C(Cc2ccccc2)N1 (stereo not given) |
| 11 | Cc1ccc(C(=S)Nc2ccc(F)cc2)cc1 |
| 11.3 | Cc1nc(N)c2cn[nH]c2n1 |
| 8.55 | O=[N+]([O-])CCc1ccccc1 |
| 7.4 | CC(=O)N(C)c1nnc(S(N)(=O)=O)s1 |
| 11.5 | NC(=O)C(N)=S |
| 5.04 | C[C@@H]1CCCC[C@@H]1C(=O)O |
| 4.28 | C/C=C/CC(=O)O |

Same assay, conditions: basic group

| SMILES | pKa |
| --- | --- |
| CC(=O)c1ccc(/N=N/c2c(N)n[nH]c2N)cc1 | 3.32 |
| O=C(NNc1ccc(Br)cc1)c1ccncc1 | 4.03 |
| Cc1ncnc2nc[nH]c12 | 2.6 |
| O/N=C/c1ccncc1 | 4.58 |
| COCc1cccc(COC)n1 | 3.43 |
| Nc1ccncn1 | 5.7 |
| N#Cc1ccccc1N | 0.95 |

Second part, the compound after the results:

| pKa | SMILES |
| --- | --- |
| 6.62 | CCCN(CC)C(CC)C(=O)Nc1c(C)cccc1C (stereo not given) |
| 9.8 | CN(C)CCCN(C)C |
| 4.82 | c1ccc(-c2cnc3c(ccc4cccnc43)c2)cc1 |
| 9.89 | CC1(C)CC(Nc2ccccc2)=C/C(=N/c2ccccc2)C1 |
| 8.6 | NCc1ccc(O)c(O)c1 |
| 2.4 | Nc1cccc2nn([C@@H]3C[C@@H](O)[C@H](CO)O3)nc12 |
